Data on 4 molecules can be found in article PMC7696671, “P2Y2 and P2X4 Receptors Mediate Ca^2+ Mobilization in DH82 Canine Macrophage Cells” (International Journal of Molecular Sciences, 2020).

Common to all, as to type: cell-based
Test [1] deals with T1, P2Y2 receptor (Canis lupus, UniProt A0A8I3MZ62).
T1 construct: gene P2RY2; endogenous receptor in DH82 canine macrophage cells
The test can be described thus: Fura-2 Ca2+ assay in DH82 cells, agonist peak response; blocked by AR-C118925 in Ca2+-free solution.

Test [2] deals with T1, P2Y2 receptor. Description: Fura-2 Ca2+ assay in DH82 cells, inhibition of the response to […] UTP (peak).
Test [3] deals with T1, P2Y2 receptor. Description: Fura-2 Ca2+ assay in DH82 cells, agonist peak response.

T1 sequence (A0A8I3MZ62 1-377): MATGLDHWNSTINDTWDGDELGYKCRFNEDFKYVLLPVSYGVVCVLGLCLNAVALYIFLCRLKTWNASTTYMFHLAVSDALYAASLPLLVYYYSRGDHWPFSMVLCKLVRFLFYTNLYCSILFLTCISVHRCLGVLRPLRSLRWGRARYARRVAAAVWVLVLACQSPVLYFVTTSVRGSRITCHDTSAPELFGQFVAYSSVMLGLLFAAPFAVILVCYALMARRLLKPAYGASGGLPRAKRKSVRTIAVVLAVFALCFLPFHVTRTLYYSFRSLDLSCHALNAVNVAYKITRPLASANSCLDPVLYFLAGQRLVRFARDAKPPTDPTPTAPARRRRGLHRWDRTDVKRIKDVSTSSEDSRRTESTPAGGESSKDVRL

Take `Nc1ncnc2c1ncn2[C@@H]1O[C@H](COP(=O)(O)OP(=O)(O)OP(=O)(O)O)[C@@H](O)[C@H]1O` [ATP]: the “Peak Ca^2+ Response / pEC50” value in test [1] stood at 5.88 ± 0.05 pEC50.
In test [2], `Cc1ccc2c(c1)C=Cc1cc(C)ccc1C2c1cn(Cc2ccc(C(=O)Nc3nn[nH]n3)o2)c(=O)[nH]c1=S` [AR-C118925] displayed an IC50 of 6.61 ± 0.09 pIC50.
Regarding `O=c1ccn([C@@H]2O[C@H](CO[P@@](=O)(O)O[P@@](=O)(O)OP(=O)(O)O)[C@@H](O)[C@H]2O)c(=O)[nH]1` [UTP], in test [3], the “Peak Ca^2+ Response / pEC50” value was found to be 6.16 ± 0.09 pEC50.
Molecule `Cc1ccc(C(=O)Nc2ccc(S(=O)(=O)O)c3cc(S(=O)(=O)O)cc(S(=O)(=O)O)c23)cc1NC(=O)c1cccc(NC(=O)Nc2cccc(C(=O)Nc3cc(C(=O)Nc4ccc(S(=O)(=O)O)c5cc(S(=O)(=O)O)cc(S(=O)(=O)O)c45)ccc3C)c2)c1` [suramin] yielded an IC50 in test [2] of 3.70 ± 0.05 pIC50.
